Tests used:
[1] = system: Klebsiella pneumoniae, strain of capsular type 2, biotype d; experiment: Anti-infectious protection of mice against Klebsiella pneumoniae infection; assay type: in vivo, hybrid mice (C57B1/6×AKR)F1; settings: compound iv. 100 μg at -24 h; for % protection: difference of % survivors vs controls
[2] = system: bovine serum albumin (BSA) antigen; experiment: Adjuvant activity in aqueous phase: anti-albumin antibody rate by passive hemagglutination; assay type: in vivo, Swiss mice; settings: S.C., 100 μg with BSA 0.5 mg/animal in isotonic saline
Method: In the series of tests of which the results are indicated hereafter, the influence of the active principle according to the invention was assessed as bearing on the anti-albumin antibody rate, particularly under the following conditions.
Groups of 8 two-month-old Swiss mice received by subcutaneous injection (SC) or orally (PO) 0.5 mg of antigen constituted by the bovine serum albumin (BSA) with or without the substance tested in an isotonic saline solution. This large dose of antigen, because of its closeness to the limit paralysing dose with respect to the immunising response, elicits but a weak or no immune response in the controls; it therefore constitutes a severe criterion for showing the activity of an adjuvant substance. Thirty days later, the mice received, by the same method of administration, a further dose containing 0.1 mg of the same antigen.
The proportion of antibody was determined by passive hemagglutination by using sheep red blood cells treated with formalin and coated with the antigen studied according to the method described by A. A. HIRATA and M. W. […] (J. Immunol., 100, 641-648, 1968). Blood samples were taken 14, 28, 34 and 36 days after the first injection.

SMILES | % survival D + 3 ([1]; K. pneumoniae im. 2 × 10^4) | % survival D + 5 ([1]; K. pneumoniae im. 2 × 10^4) | % survival D + 10 ([1]; K. pneumoniae im. 2 × 10^4) | % protection ([1]; K. pneumoniae im. 2 × 10^4) | % survival D + 3 ([1]; K. pneumoniae im. 1,5 × 10^4) | % survival D + 5 ([1]; K. pneumoniae im. 1,5 × 10^4) | % survival D + 10 ([1]; K. pneumoniae im. 1,5 × 10^4) | % protection ([1]; K. pneumoniae im. 1,5 × 10^4) | Titer of antibody 28th day [2]
CC(=O)N[C@H]1C(O)O[C@H](COC(=O)CCC(=O)O)[C@@H](O)[C@@H]1O[C@H](C)C(=O)N[C@@H](C)C(=O)N[C@H](CCC(=O)O)C(N)=O (stereo partly drawn) [6-O-succinyl-Mur-NAc--L--Ala--D--Glu,(OH)--NH2] | 100% | 91% | 63% | 44% | – | – | – | – | –
CC(=O)N[C@H]1C(O)O[C@H](CO)[C@@H](O)[C@@H]1OCC(=O)N[C@@H](C)C(=O)N[C@H](CCC(=O)O)C(N)=O (stereo partly drawn) [norMur--NAc--L-Ala--D-Glu(OH)--NH2, 2(2-acetamido-2-deoxy-3-O-D-glucopyranosyl)-acetyl-L-alanyl-D-isoglutamine] | – | – | – | – | 78% | 64% | 60% | 47% | 25
CC(=O)N[C@H]1C(O)O[C@H](COC(C)=O)[C@@H](OC(C)=O)[C@@H]1O[C@H](C)C(=O)N[C@@H](C)C(=O)N[C@H](CCC(=O)O)C(N)=O (stereo partly drawn) [4,6-di-O-acetyl--Mur--NAc--L--Ala--D--Glu(OH)--NH2] | 97% | 84% | 63% | 47% | – | – | – | – | –
CC(=O)N[C@@H]1[C@@H](O[C@H](C)C(=O)N[C@@H](C)C(=O)N[C@H](CCC(=O)O)C(N)=O)[C@H](O)[C@@H](CO)O[C@H]1O [Mur--NAc--L-Ala--D-Glu(OH)--NH2, Mur--NAc--L--Ala--D--Glu(OH)--NH2, reference compound] | – | – | – | – | 83% | 66% | 60% | 47% | 25

From US4327085A, “Biologically active compositions and methods of use” (Agence National de Valorisation de la Recherache (ANVAR), priority 1973, dated 1982)
